# In patent US5800838A, “Composition that inhibits or destroys at least one unicellular living organism containing fluorine F- and Lithium li+” (priority 1987, dated 1998):
# Where two headings read alike, the source gives them in different places.
# Tests used:
# Gardnerella vaginalis = test: Number of strains inhibited, bactericidal substance incorporated in culture medium (first trial); format: cell-based; conditions: for MBC: Gardnerella vaginalis, 24 h, read-out: totally lethal concentration; for number of strains inhibited out of the 32 tested: NaF or LiF 1 mg/l where added
# Method: (§1) In the first trial, the sample of bactericidal substance was incorporated directly in the specific culture edium of the microorganism. A concentration series of the bactericidal substance was prepared in the geometric ratio of 2, from 400 μg/ml to 1.56 μg/ml. The cell concentration used in the seeding of the Petri dishes was […]. A 24-hour incubation was performed at 37° C. and then, for each wild-type strain tested, the concentration of primary principle destroying all the microorganisms (see method of Professor F. CATALAN et al., Institut A. FOURNIER, PARIS) was determined. The trail was performed on 32 wild-type strains of Gardnerella vaginalis originating from hospital sources and with benzalkonium chloride and then nonoxinol 9 as active principles, and with sodium fluoride NaF at a concentration of 1 mg/l and then lithium fluoride LiF at a concentration of 1 mg/l as activating principles.
# Pseudomonas aeruginosa = test: MIC on 200 wild-type strains of Pseudomonas aeruginosa (Examples 19 and 20); format: cell-based; conditions: Pseudomonas aeruginosa
# Method: With the same methodology as above, the MIC values of benzalkonium chloride alone, in the presence of the KATHON CG (registered trademark) preservative (1 mg/l), and then in the presence of KATHON CG (registered trademark) (1 mg/l) and lithium fluoride (1 mg/l), were determined. 200 wild-type strains of Pseudomonas aeruginosa were tested.
# The same trial as in Example 19 was performed, but with nonoxinol 9 as the primary active principle: 200 wild-type strains of Pseudomonas aeruginosa were also tested.
# [1] = test system: Escherichia coli CNCM 54 127; conditions: cited from earlier work
# Trichomonas vaginalis = test: Number of strains inhibited / MIC, same methodology as example 4; format: cell-based; conditions: for MIC: Trichomonas vaginalis
# Method: as §1
# The same methodology as in example 4 was used on 15 strains of Trichomonas vaginalis.
# spermatozoa = conditions: in the initial 1 millilitre, cited from earlier work
# [2] = test system: Mycobacterium smegmatis CNCM 7 326; conditions: cited from earlier work
# Salmonella typhimurium = test: MIC on wild-type hospital strains (Example 6); format: cell-based; conditions: Salmonella enterica, 3 strains
# Method: (§2) The MIC of benzalkonium chloride, alone and in the presence of LiF at a concentration of 1 mg/l, was determined with respect to other wild-type strains originating from hospital sources namely Streptococcus (6 strains). Staphylococcus aureus (8 strains). Salmonella typhimurium (3 strains) and Sarcina lutea (1 strain).
# Sarcina lutea = test: MIC on wild-type hospital strains (Example 6); format: cell-based; conditions: Micrococcus luteus, 1 strain
# Method: as §2
# Streptococcus = test: MIC on wild-type hospital strains (Example 6); format: cell-based; conditions: 6 strains
# Method: as §2
# Staphylococcus aureus = test: MIC on wild-type hospital strains (Example 6); format: cell-based; conditions: in the presence of LiF at 1 mg/l, 8 strains
# Method: as §2
# [3] = test system: Staphylococcus aureus Oxford strain CNCM 53 154; conditions: cited from earlier work
# DUCREY's bacillus = test: MIC with respect to DUCREY's bacillus; format: cell-based, DUCREY's Haemophilus; conditions: read-out: MIC of the primary active principle
# Method: The methodology employed is that described by Professor F. CATALAN, P. SEDNAOUI, A. MILOVANOVIC et al., Institut A. FOURNIER, PARIS.
# The trials were performed on 8 wild-type strains of DUCREY's Haemophilus. The following results were recorded with respect to these strains: […]
# [4] = in the presence of NaF at 1 mg/l
# [5] = in the presence of LiF at 1 mg/l
smiles,measurement,setting,value
"CCCCCCCCCCCCCC[N+](C)(C)Cc1ccccc1.[Cl-] [benzalkonium chloride, myristyldimethylbenzylammonium chloride]",MBC,Gardnerella vaginalis; alone,50 µg/mL
same,MBC,Gardnerella vaginalis; in the presence of LiF,12.5 µg/mL
same,MBC,Gardnerella vaginalis; in the presence of NaF,25 µg/mL
same,number of strains inhibited out of the 32 tested,Gardnerella vaginalis; primary active principle 1.56 mg/l,0
same,number of strains inhibited out of the 32 tested,Gardnerella vaginalis; primary active principle 3.125 mg/l,0
same,number of strains inhibited out of the 32 tested,Gardnerella vaginalis; primary active principle 6.25 mg/l,1
same,number of strains inhibited out of the 32 tested,Gardnerella vaginalis; primary active principle 12.5 mg/l,28
same,number of strains inhibited out of the 32 tested,Gardnerella vaginalis; primary active principle 25 mg/l,31
same,number of strains inhibited out of the 32 tested,Gardnerella vaginalis; primary active principle 50 mg/l,32
same,MIC,"Pseudomonas aeruginosa; + KATHON CG (1 mg/l) + LiF (1 mg/l), strain Tic R βLac^+",16 µg/mL
same,MIC,"Pseudomonas aeruginosa; + KATHON CG (1 mg/l) + LiF (1 mg/l), strain Tic R βLac^+ OXA",16 µg/mL
same,MIC,"Pseudomonas aeruginosa; + KATHON CG (1 mg/l) + LiF (1 mg/l), strain Tic R βLac^+ PSE",32 µg/mL
same,MIC,"Pseudomonas aeruginosa; + KATHON CG (1 mg/l) + LiF (1 mg/l), strain Tic R βLac^+ TEM",32 µg/mL
same,MIC,"Pseudomonas aeruginosa; + KATHON CG (1 mg/l) + LiF (1 mg/l), strain Tic R βLac^+ cephalosporinase",32 µg/mL
same,MIC,"Pseudomonas aeruginosa; + KATHON CG (1 mg/l) + LiF (1 mg/l), strain Tic S βLac^-",16 µg/mL
same,MIC,"Pseudomonas aeruginosa; + KATHON CG (1 mg/l), strain Tic R βLac^+ OXA, read-out: MIC",32 µg/mL
same,MIC,"Pseudomonas aeruginosa; + KATHON CG (1 mg/l), strain Tic R βLac^+ PSE, read-out: MIC",64 µg/mL
same,MIC,"Pseudomonas aeruginosa; + KATHON CG (1 mg/l), strain Tic R βLac^+ TEM, read-out: MIC",32 µg/mL
same,MIC,"Pseudomonas aeruginosa; + KATHON CG (1 mg/l), strain Tic R βLac^+ cephalosporinase, read-out: MIC",128 µg/mL
same,MIC,"Pseudomonas aeruginosa; + KATHON CG (1 mg/l), strain Tic R βLac^+, read-out: MIC",32 µg/mL
same,MIC,"Pseudomonas aeruginosa; + KATHON CG (1 mg/l), strain Tic S βLac^-, read-out: MIC",16 µg/mL
same,MIC,"Pseudomonas aeruginosa; alone, strain Tic R βLac^+",64 µg/mL
same,MIC,"Pseudomonas aeruginosa; alone, strain Tic R βLac^+ OXA, read-out: MIC",64 µg/mL
same,MIC,"Pseudomonas aeruginosa; alone, strain Tic R βLac^+ PSE, read-out: MIC",64 µg/mL
same,MIC,"Pseudomonas aeruginosa; alone, strain Tic R βLac^+ TEM, read-out: MIC",32 µg/mL
same,MIC,"Pseudomonas aeruginosa; alone, strain Tic R βLac^+ cephalosporinase, read-out: MIC",128 µg/mL
same,MIC,"Pseudomonas aeruginosa; alone, strain Tic S βLac^-, read-out: MIC",32 µg/mL
same,MIC of benzalkonium chloride,[1]; alone,6.57 µg/mL
same,MIC of benzalkonium chloride,[1]; [4],3 µg/mL
same,MIC,Trichomonas vaginalis; alone,25 µg/mL
same,MIC,Trichomonas vaginalis; in the presence of LiF,6.25 µg/mL
same,number of strains inhibited out of the 15 tested,"Trichomonas vaginalis; benzalkonium chloride 1.56 mg/l, LiF 1 mg/l where added",1
same,number of strains inhibited out of the 15 tested,"Trichomonas vaginalis; benzalkonium chloride 3.125 mg/l, LiF 1 mg/l where added",3
same,number of strains inhibited out of the 15 tested,"Trichomonas vaginalis; benzalkonium chloride 6.25 mg/l, LiF 1 mg/l where added",9
same,number of strains inhibited out of the 15 tested,Trichomonas vaginalis; benzalkonium chloride 12.5 mg/l,13
same,number of strains inhibited out of the 15 tested,Trichomonas vaginalis; benzalkonium chloride 25 mg/l,15
same,MIC of benzalkonium chloride,spermatozoa; alone,0.006%
same,MIC of benzalkonium chloride,spermatozoa; with 1 ml solution containing 0.0001% F^- anions,0.002%
same,MIC of benzalkonium chloride,[2]; alone,30 µg/mL
same,MIC of benzalkonium chloride,[2]; [4],26 µg/mL
same,MIC,Salmonella typhimurium; alone,17 µg/mL
same,MIC,Salmonella typhimurium; [5],12 µg/mL
same,MIC,Sarcina lutea; alone,15 µg/mL
same,MIC,Sarcina lutea; [5],11 µg/mL
same,MIC,Streptococcus; alone,18 to 20 µg/mL
same,MIC,Streptococcus; [5],10 µg/mL
same,MIC,Staphylococcus aureus,0.3 µg/mL
same,MIC of benzalkonium chloride,[3]; alone,1.56 µg/mL
same,MIC of benzalkonium chloride,[3]; [4],1.1 µg/mL
same,MIC,DUCREY's bacillus; in the presence of LiF (1 mg/l),65 µg/mL
same,MIC,DUCREY's bacillus; in the presence of NaF (1 mg/l),85 µg/mL
same,MIC,DUCREY's bacillus,100 µg/mL
